{"source": "ChEMBL document CHEMBL3046567", "about": "“Potential applications of violacein: a microbial pigment” (Med Chem Res, 2012)", "key": {"Mus musculus [1]": {"tested_on": "Mus musculus", "assay": "Inhibition of HCl/ethanol- induced gastric damage in Mus musculus (mouse) at 30 mg/kg", "type": "functional", "settings": "Stomach"}, "Leishmania amazonensis [2]": {"tested_on": "Leishmania amazonensis", "assay": "Antiparasitic activity against Leishmania amazonensis MHOM/BR /77/LTB0016 after 24 hr", "type": "functional, organism-based", "settings": "MHOM/BR /77/LTB0016, 24 h"}, "Leishmania amazonensis [3]": {"tested_on": "Leishmania amazonensis", "assay": "Antiparasitic activity against Leishmania amazonensis MHOM/BR /77/LTB0016 promastigote at 16.8 uM", "type": "functional"}, "Enterovirus C": {"tested_on": "Enterovirus C", "assay": "Antiviral activity against Enterovirus C (Poliovirus) infected HeLa cells at 0.063 ug/ml", "type": "functional"}, "[4]": {"assay": "Cytotoxicity against Homo sapiens (human) Lymphocyte", "type": "cell-based"}, "[5]": {"assay": "Cytotoxicity against Macaca mulatta (Rhesus monkey) FRhK4 cells", "type": "cell-based", "settings": "FRhK-4"}, "[6]": {"assay": "Cytotoxicity against Macaca mulatta (Rhesus monkey) MA104 cells", "type": "cell-based"}, "Vero": {"tested_on": "Vero", "assay": "Cytotoxicity against […] Vero cells", "type": "cell-based", "settings": "Chlorocebus sabaeus"}, "U-937": {"tested_on": "U-937", "assay": "Cytotoxicity against Homo sapiens (human) U937 cells", "type": "functional, cell-based"}, "[7]": {"assay": "Cytotoxicity against Mus musculus (mouse) EAT cells", "type": "functional, cell-based"}, "K562": {"tested_on": "K562", "assay": "Cytotoxicity against Homo sapiens (human) K562 cells", "type": "functional, cell-based"}, "Caco-2": {"tested_on": "Caco-2", "assay": "Cytotoxicity against Homo sapiens (human) Caco2 cells after 24 to 48 hr by MTT assay", "type": "functional, cell-based"}, "Leishmania amazonensis [8]": {"tested_on": "Leishmania amazonensis", "assay": "Antiparasitic activity against Leishmania amazonensis MHOM/BR /77/LTB0016 promastigote at 460.8 uM", "type": "functional"}, "[9]": {"tested_on": "Mycobacterium tuberculosis", "assay": "Antimycobacterial activity against Mycobacterium tuberculosis H37Rv", "type": "functional"}, "KM12": {"tested_on": "KM12", "assay": "Cytotoxicity against Homo sapiens (human) KM12 cells", "type": "functional"}, "HCT-116": {"tested_on": "HCT-116", "assay": "Cytotoxicity against Homo sapiens (human) HCT116 cells after 24 to 48 hr by MTT assay", "type": "functional, cell-based"}, "V79": {"tested_on": "V79", "assay": "Cytotoxicity against Cricetulus griseus V79 cells", "type": "functional, cell-based"}, "MOLT-4": {"tested_on": "MOLT-4", "assay": "Cytotoxicity against Homo sapiens (human) MOLT4 cells", "type": "functional"}, "Mus musculus [10]": {"tested_on": "Mus musculus", "assay": "Inhibition of HCl/ethanol- induced gastric damage in Mus musculus (mouse) at 10 mg/kg, po, sd", "type": "functional", "settings": "Stomach"}, "HT-29": {"tested_on": "HT-29", "assay": "Cytotoxicity against Homo sapiens (human) HT-29 cells after 24 to 48 hr by MTT assay", "type": "functional, cell-based"}, "NCI-H460": {"tested_on": "NCI-H460", "assay": "Cytotoxicity against Homo sapiens (human) NCI-H460 cells", "type": "functional"}, "DLD-1": {"tested_on": "DLD-1", "assay": "Cytotoxicity against Homo sapiens (human) DLD1 cells after 24 to 48 hr by MTT assay", "type": "functional, cell-based"}, "HL-60": {"tested_on": "HL-60", "assay": "Cytotoxicity against Homo sapiens (human) HL60 cells", "type": "functional, cell-based"}, "Trypanosoma cruzi": {"tested_on": "Trypanosoma cruzi", "assay": "Antitrypanosomal activity against trypomastigote of Trypanosoma cruzi Y infected in albino mouse assessed as reduction in parasitemia at 100 mg/kg, ip for 7 days", "type": "functional", "settings": "168 h, route intraperitoneal"}, "HEp-2": {"tested_on": "HEp-2", "assay": "Cytotoxicity against Homo sapiens (human) Hep2 cells", "type": "cell-based"}}}
{"smiles": "Cc1c(OCC(F)(F)F)ccnc1C[S+]([O-])c1nc2ccccc2[nH]1", "note": "(configuration not stated) [LANSOPRAZOLE]", "values": [{"measurement": "inhibition in vivo at 30 mg/kg", "setting": "Mus musculus [1]", "value": 63, "unit": "%"}]}
{"smiles": "N=C(N)c1ccc(OCCCCCOc2ccc(C(=N)N)cc2)cc1", "note": "[PENTAMIDINE]", "values": [{"measurement": "EC50", "setting": "Leishmania amazonensis [2]", "value": 0.46, "unit": "µM"}, {"measurement": "inhibition at 16.8 µM", "setting": "Leishmania amazonensis [3]", "value": 100, "unit": "%"}]}
{"smiles": "O=C1NC(c2c[nH]c3ccc(O)cc23)=C/C1=C1\\C(=O)Nc2ccccc21", "note": "[VIOLACEIN]", "values": [{"measurement": "inhibition at 0.063 µg/mL", "setting": "Enterovirus C", "value": 56, "unit": "%"}, {"measurement": "IC50", "setting": "[4]", "value": 10, "unit": "µM"}, {"measurement": "IC50", "setting": "[5]", "value": 2.2, "unit": "µM"}, {"measurement": "IC50", "setting": "[6]", "value": 2.2, "unit": "µM"}, {"measurement": "IC50", "setting": "Vero", "value": 2.2, "unit": "µM"}, {"measurement": "IC50", "setting": "U-937", "value": "< 1", "unit": "µM"}, {"measurement": "EC50", "setting": "Leishmania amazonensis [2]", "value": 4.3, "unit": "µM"}, {"measurement": "IC50", "setting": "[7]", "value": 5, "unit": "µM"}, {"measurement": "IC50", "setting": "K562", "value": "< 1", "unit": "µM"}, {"measurement": "IC50", "setting": "Caco-2", "value": "> 1.5", "unit": "µM"}, {"measurement": "inhibition at 460.8 µM", "setting": "Leishmania amazonensis [8]", "value": 100, "unit": "%"}, {"measurement": "MBC", "setting": "[9]", "value": 128, "unit": "µg/mL"}, {"measurement": "MIC", "setting": "[9]", "value": 64, "unit": "µg/mL"}, {"measurement": "GI50", "setting": "KM12", "value": 0.03, "unit": "µM"}, {"measurement": "IC50", "setting": "HCT-116", "value": "> 1.5", "unit": "µM"}, {"measurement": "IC50", "setting": "V79", "value": 5, "unit": "µM"}, {"measurement": "GI50", "setting": "MOLT-4", "value": 0.03, "unit": "µM"}, {"measurement": "inhibition in vivo at 10 mg/kg", "setting": "Mus musculus [10]", "value": 85, "unit": "%"}, {"measurement": "IC50", "setting": "HT-29", "value": "> 1.5", "unit": "µM"}, {"measurement": "GI50", "setting": "NCI-H460", "value": 0.03, "unit": "µM"}, {"measurement": "IC50", "setting": "DLD-1", "value": "> 1.5", "unit": "µM"}, {"measurement": "IC50", "setting": "HL-60", "value": 0.8, "unit": "µM"}, {"measurement": "inhibition in vivo at 100 mg/kg", "setting": "Trypanosoma cruzi", "value": 4, "unit": "%"}, {"measurement": "IC50", "setting": "HEp-2", "value": 2.2, "unit": "µM"}]}
